In one experiment the target is LRBA C2675 (P50851) (Homo sapiens, UniProt P50851). Kind of experiment: Competitive isoTOP-ABPP, cell lysates. The format is binding. To be noted: for isoTOP-ABPP ratio, P50851_C2675: 500 μM, invitro, ramos.
The target in experiment [1] is cysteines in MDA-MB-231 and Ramos cells (Homo sapiens, UniProt P12268). The experiment in a line: Competitive isoTOP-ABPP in situ (fragment-treated cells). The format is cell-based.
In a further experiment the target is T1, ERCC3 C342 (P19447) (Homo sapiens, UniProt P19447).
T1 sequence (P19447 1-782): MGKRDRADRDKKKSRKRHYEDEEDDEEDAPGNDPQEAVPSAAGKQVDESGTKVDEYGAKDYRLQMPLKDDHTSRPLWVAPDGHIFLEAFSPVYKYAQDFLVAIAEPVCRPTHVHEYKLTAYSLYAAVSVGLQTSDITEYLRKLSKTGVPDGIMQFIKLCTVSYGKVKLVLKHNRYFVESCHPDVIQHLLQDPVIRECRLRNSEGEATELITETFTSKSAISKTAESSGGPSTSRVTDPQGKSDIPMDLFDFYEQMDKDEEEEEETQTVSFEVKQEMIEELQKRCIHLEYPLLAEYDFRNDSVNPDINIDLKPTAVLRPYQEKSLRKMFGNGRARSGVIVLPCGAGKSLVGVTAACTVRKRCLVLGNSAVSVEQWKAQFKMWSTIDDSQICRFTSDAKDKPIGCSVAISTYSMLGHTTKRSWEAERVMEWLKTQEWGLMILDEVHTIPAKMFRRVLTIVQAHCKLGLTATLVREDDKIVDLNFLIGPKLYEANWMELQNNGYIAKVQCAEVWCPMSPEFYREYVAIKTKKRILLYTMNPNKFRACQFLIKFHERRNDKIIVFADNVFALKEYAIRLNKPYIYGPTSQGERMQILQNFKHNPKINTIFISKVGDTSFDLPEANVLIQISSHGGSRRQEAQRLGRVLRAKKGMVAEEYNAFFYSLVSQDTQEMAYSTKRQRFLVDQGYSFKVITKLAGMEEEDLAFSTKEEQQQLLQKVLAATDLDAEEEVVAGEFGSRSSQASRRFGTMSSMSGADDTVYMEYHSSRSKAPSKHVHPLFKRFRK
The experiment in a line: Competitive isoTOP-ABPP, cell lysates. The format is binding. To be noted: for R value (DMSO/fragment): 250 μM, in vitro; for isoTOP-ABPP reactivity profile ratio, P19447_C342: 500 μm, in-vitro_ramos_231; for isoTOP-ABPP ratio P19447_C342: 500 μM, invitro; for isoTOP-ABPP ratio (reactivity profile), P19447_C342: 500 μm in-vitro ramos_231.

Chain of LRBA C2675 (P50851) (P50851 whole entry, the tested form may be a part): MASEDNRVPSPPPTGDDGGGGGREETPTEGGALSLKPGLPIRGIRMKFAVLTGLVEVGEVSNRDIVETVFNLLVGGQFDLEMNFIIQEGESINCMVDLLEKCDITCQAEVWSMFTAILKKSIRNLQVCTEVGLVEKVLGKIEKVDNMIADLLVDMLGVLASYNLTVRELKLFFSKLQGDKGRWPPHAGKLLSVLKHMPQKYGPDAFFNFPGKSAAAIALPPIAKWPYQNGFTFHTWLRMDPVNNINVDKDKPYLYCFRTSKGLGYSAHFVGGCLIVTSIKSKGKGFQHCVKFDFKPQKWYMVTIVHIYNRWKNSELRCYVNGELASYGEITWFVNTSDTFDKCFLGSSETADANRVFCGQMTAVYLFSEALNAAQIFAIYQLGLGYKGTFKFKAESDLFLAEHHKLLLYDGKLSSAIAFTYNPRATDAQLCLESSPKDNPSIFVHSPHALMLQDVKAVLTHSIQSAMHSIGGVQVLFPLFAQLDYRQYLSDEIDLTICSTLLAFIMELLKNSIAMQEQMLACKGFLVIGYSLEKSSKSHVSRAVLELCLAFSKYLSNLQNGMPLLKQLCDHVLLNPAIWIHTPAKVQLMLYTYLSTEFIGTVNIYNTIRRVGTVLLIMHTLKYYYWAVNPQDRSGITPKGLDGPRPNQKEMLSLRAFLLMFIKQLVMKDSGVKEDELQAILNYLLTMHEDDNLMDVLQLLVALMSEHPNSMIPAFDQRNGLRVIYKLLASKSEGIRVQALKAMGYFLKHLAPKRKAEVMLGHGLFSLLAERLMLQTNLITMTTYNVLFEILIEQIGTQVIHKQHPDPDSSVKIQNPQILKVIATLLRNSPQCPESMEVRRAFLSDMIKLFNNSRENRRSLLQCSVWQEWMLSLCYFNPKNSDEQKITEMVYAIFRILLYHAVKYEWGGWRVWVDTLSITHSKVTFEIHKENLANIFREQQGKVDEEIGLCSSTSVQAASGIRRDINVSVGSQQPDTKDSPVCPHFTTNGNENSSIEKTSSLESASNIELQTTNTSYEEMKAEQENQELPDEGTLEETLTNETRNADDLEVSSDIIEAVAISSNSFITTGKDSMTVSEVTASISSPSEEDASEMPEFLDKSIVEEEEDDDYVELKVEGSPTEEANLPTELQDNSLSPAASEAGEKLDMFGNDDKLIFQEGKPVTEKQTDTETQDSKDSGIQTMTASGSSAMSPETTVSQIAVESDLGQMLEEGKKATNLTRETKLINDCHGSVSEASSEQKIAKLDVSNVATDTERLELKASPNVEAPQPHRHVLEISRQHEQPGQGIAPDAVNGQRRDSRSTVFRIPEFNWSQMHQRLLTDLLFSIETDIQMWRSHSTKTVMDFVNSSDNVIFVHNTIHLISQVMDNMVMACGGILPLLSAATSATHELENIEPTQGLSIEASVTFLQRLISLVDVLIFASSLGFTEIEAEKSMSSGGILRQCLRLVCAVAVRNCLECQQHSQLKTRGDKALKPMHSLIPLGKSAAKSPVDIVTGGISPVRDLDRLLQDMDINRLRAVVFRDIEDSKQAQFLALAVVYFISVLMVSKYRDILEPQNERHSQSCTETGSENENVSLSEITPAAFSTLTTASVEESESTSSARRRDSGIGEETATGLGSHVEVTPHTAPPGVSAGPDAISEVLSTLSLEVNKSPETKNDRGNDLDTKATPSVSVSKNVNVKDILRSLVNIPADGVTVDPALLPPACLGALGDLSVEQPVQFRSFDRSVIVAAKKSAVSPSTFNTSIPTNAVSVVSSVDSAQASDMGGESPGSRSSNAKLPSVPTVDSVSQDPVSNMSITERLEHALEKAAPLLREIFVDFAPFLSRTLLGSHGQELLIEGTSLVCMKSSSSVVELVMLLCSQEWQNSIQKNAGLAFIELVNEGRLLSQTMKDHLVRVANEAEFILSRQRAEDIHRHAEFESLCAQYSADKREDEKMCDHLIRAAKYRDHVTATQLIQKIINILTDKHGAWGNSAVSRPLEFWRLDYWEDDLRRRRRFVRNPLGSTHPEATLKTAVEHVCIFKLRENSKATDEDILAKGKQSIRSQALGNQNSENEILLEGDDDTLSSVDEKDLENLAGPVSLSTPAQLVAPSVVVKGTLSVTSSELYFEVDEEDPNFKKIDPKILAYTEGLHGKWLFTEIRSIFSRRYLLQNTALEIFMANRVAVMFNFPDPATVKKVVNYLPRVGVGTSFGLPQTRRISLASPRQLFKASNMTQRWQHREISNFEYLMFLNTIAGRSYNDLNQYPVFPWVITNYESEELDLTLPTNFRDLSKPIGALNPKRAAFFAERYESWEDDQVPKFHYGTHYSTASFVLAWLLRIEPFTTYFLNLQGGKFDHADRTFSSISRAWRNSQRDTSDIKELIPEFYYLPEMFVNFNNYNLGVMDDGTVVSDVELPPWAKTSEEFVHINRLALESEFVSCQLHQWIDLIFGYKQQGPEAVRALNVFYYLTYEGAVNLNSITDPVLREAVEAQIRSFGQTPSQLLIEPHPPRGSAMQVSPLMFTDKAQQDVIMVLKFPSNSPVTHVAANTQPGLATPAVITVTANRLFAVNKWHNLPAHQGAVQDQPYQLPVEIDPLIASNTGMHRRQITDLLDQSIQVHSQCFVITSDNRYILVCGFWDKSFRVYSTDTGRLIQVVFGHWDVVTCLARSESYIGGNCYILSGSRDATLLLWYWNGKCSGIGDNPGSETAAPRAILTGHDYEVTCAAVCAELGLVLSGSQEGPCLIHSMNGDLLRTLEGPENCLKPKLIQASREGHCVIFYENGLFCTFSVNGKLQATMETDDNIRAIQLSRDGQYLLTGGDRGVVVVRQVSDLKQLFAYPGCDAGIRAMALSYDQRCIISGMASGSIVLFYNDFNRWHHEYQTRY
Procedure for ERCC3 C342 (P19447): TEV digests were pressure loaded onto a 250 μm (inner diameter) fused silica capillary column packed with C18 resin (Aqua 5 μm, Phenomenex). The samples were analyzed by multidimensional liquid chromatography tandem mass spectrometry (MudPIT), using an LTQ-Velos Orbitrap mass spectrometer (Thermo Scientific) coupled to an Agilent 1200-series quaternary pump. […] One full MS (MS1) scan (400-1800 m/z) was followed by 30 MS2 scans (ITMS) of the nth most abundant ions.
The ratios of heavy/light for each unique peptide (DMSO/compound treated; isoTOP-ABPP ratios, R values) were quantified with in-house CIMAGE software, using default parameters (3 ms s per peak and signal to noise threshold 2.5). Site-specific engagement of electrophilic fragments was assessed by blockade of IA-alkyne probe labeling. […] Ratios for unique peptide entries were calculated for each experiment; overlapping peptides with the same modified cysteine (e.g. different charge states, MudPIT chromatographic steps or tryptic termini) were grouped together and the median ratio was reported as the final ratio (R). The peptide ratios reported by CIMAGE were further filtered to ensure the removal or correction of low quality ratios in each individual dataset. The quality filters applied were the following: removal of half tryptic peptides; for ratios with high standard deviations from the median (90% of the median or above) the lowest ratio was taken instead of the median; removal of peptides with R=20 and only a single ms2 event triggered during the elution of the parent ion; manual annotation of all the peptides with ratios of 20, removing any peptides with low-quality elution profiles that remained after the previous curation steps. Proteome reactivity values for individual fragments were computed as the percentage of the total quantified cysteine-containing peptides with R values≥4 (defined as liganded cysteines) for each replicate experiment and the final proteome reactivity value was calculated as the mean for all replicate experiments for each fragment from both MDA-MB-231 and Ramos cellular proteomes.
Biological replicates of the same compound and cell-line were averaged if the standard deviation was below 60% of the mean; otherwise the lowest value of the ratio set was taken. For peptides with multiple modified cysteines, the cysteine with the highest number of quantification events was kept and the remaining, redundant peptides were discarded. […] Although the majority (>75% of fragments) were profiled in at least two biological replicates, some data from single replicate MS experiments were included.

With `O=C(/C=C/c1ccccc1)Nc1cc(C(F)(F)F)cc(C(F)(F)F)c1` [compound 26], the “isoTOP-ABPP ratio (reactivity profile), P50851_C2675” value on LRBA C2675 (P50851) (500 μm in-vitro ramos) stood at 0.9.

`COc1ccc(C2CC(c3cccs3)=NN2C(=O)CCl)cc1` (stereo not drawn) [compound 4]: the “isoTOP-ABPP reactivity P12268_C140 IMPDH2” value in experiment [1] (100 μM in situ 231) was 1.0. The “isoTOP-ABPP reactivity P12268_C331 IMPDH2” value in experiment [1] (100 μM in situ 231) is 4.6. The “R value (DMSO/fragment)” value came to 1.6 on ERCC3 C342 (P19447) (MDA-MB-231); 1.1 on ERCC3 C342 (P19447) (Ramos); 1.1 on LRBA C2675 (P50851) (250 μM, in vitro, MDA-MB-231).

In the case of `O=C(CCl)Nc1cccc2ncccc12` [compound 51], the “isoTOP-ABPP ratio P12268_C140” value in experiment [1] (200 μM, insitu, 231) stood at 1.0. In addition, the “isoTOP-ABPP reactivity profile ratio, P19447_C342” value on ERCC3 C342 (P19447) turned out to be 1.4. Also, on LRBA C2675 (P50851) (500 μm, in-vitro_ramos), the “isoTOP-ABPP reactivity profile ratio, P50851_C2675” value turned out to be 0.9.

`CC1CCc2ccccc2N1C(=O)CCl` (stereo not drawn) [compound 45]: in experiment [1] (200 μM, insitu, 231), the “isoTOP-ABPP ratio P12268_C140” value stood at 1.9 and the “isoTOP-ABPP ratio P12268_C331” value came to 4.1.

For `O=C(CCl)NC(=O)NC12CC3CC(CC(C3)C1)C2` [compound 12], in experiment [1] (200 μM, insitu, 231), the “isoTOP-ABPP ratio P12268_C140” value is given as 1.2. Also, the “isoTOP-ABPP ratio P19447_C342” value on ERCC3 C342 (P19447) (231) is 3.0. The “isoTOP-ABPP ratio, P50851_C2675” value on LRBA C2675 (P50851) was determined as 1.5.

`O=C(CCl)N1CCN(S(=O)(=O)c2ccccc2F)CC1` [compound 10]: the “isoTOP-ABPP ratio P12268_C140” value in experiment [1] (200 μM, insitu, 231) turned out to be 0.7. Also, in experiment [1] (200 μM, insitu, ramos), the “isoTOP-ABPP ratio P12268_C140” value amounted to 0.9 and the “isoTOP-ABPP ratio P12268_C331” value is recorded as 2.1. Moreover, the “isoTOP-ABPP ratio P19447_C342” value on ERCC3 C342 (P19447) (231) came to 3.0. Besides, the “isoTOP-ABPP ratio, P50851_C2675” value at LRBA C2675 (P50851) is on record as 1.3.

Consider `O=C(CCl)N1CCN(CC(=O)N2CCOCC2)CC1` [compound 29], for which, in experiment [1] (200 μM, insitu, ramos), the “isoTOP-ABPP ratio P12268_C140” value turned out to be 1.6 and the “isoTOP-ABPP ratio P12268_C331” value is 1.3. Moreover, the “isoTOP-ABPP ratio (reactivity profile), P19447_C342” value on ERCC3 C342 (P19447) was 0.8. Further, the “isoTOP-ABPP ratio (reactivity profile), P50851_C2675” value on LRBA C2675 (P50851) (500 μm in-vitro ramos_231) was 1.1.

`O=C(CCl)N1CCC(Cc2ccccc2)CC1` [compound 9]: in experiment [1] (200 μM, insitu, 231), the “isoTOP-ABPP reactivity P12268_C140 IMPDH2” value is on record as 1.2 and the “isoTOP-ABPP reactivity P12268_C331 IMPDH2” value was 1.3.

Regarding `CNS(=O)(=O)C=Cc1ccc2c(ccn2Cc2ccccc2)c1` [compound 6], the “isoTOP-ABPP ratio P19447_C342” value on ERCC3 C342 (P19447) (231) is 1.1.

In the case of `Cn1cc(S(=O)(=O)N2CCOCC2)cc1C(=O)NC(=O)CCl` [compound 11], in experiment [1] (100 μM in situ 231), the “isoTOP-ABPP ratio P12268_C140” value came out at 0.6 and the “isoTOP-ABPP ratio P12268_C331” value was found to be 1.0. Besides, the “isoTOP-ABPP ratio P19447_C342” value at ERCC3 C342 (P19447) (231) stood at 2.9. Also, on ERCC3 C342 (P19447) (ramos), the “isoTOP-ABPP ratio P19447_C342” value is listed as 1.5. For the same molecule, the “isoTOP-ABPP ratio, P50851_C2675” value on LRBA C2675 (P50851) is given as 1.3.

Consider `COc1ccccc1OCCNC(=O)CCl` [compound 28], for which, in experiment [1] (200 μM, insitu, 231), the “isoTOP-ABPP ratio P12268_C140” value stood at 0.6 and the “isoTOP-ABPP ratio P12268_C331” value was 0.8.

As for `CC(C)(C)c1cc(NC(=O)CCl)on1` [compound 32], the “isoTOP-ABPP reactivity ratio, P50851_C2675” value at LRBA C2675 (P50851) (500 μm, in-vitro_ramos) was 1.1; on LRBA C2675 (P50851) (500 μm, in-vitro_ramos_231), 1.8.

Turning to `C=CC(=O)N(c1ccccc1)c1ccc(Br)cc1` [compound 5], at ERCC3 C342 (P19447) (ramos), the “isoTOP-ABPP ratio P19447_C342” value amounted to 4.1. Besides, at LRBA C2675 (P50851), the “isoTOP-ABPP ratio, P50851_C2675” value is recorded as 20.0.

Consider `O=C(CCl)Nc1ccc(-c2ccccc2)cc1` [compound 52], for which the “isoTOP-ABPP reactivity profile ratio, P19447_C342” value on ERCC3 C342 (P19447) worked out at 1.0.

On to `C=CC(=O)N(Cc1cccnc1)c1cc(C(F)(F)F)cc(C(F)(F)F)c1` [compound 31], for which, in experiment [1] (200 μM, insitu, 231), the “isoTOP-ABPP ratio P12268_C140” value came to 0.6 and the “isoTOP-ABPP ratio P12268_C331” value was 1.0. In addition, in experiment [1] (200 μM, insitu, ramos), the “isoTOP-ABPP ratio P12268_C140” value is reported as 1.0 and the “isoTOP-ABPP ratio P12268_C331” value amounted to 1.1.

Regarding `C=CC(=O)N(c1ccccc1)C1CCCCC1` [compound 46], the “isoTOP-ABPP reactivity profile ratio, P19447_C342” value on ERCC3 C342 (P19447) was 1.0.

On to `CC(Cl)C(=O)Nc1cc(C(F)(F)F)cc(C(F)(F)F)c1` (stereo not drawn) [compound 25], for which the “isoTOP-ABPP ratio (reactivity profile), P19447_C342” value on ERCC3 C342 (P19447) worked out at 0.9.

For `COc1cc2c(cc1OC)CN(C(=O)CCl)CC2` [compound 8], the “isoTOP-ABPP reactivity P12268_C140 IMPDH2” value in experiment [1] (200 μM, insitu, 231) worked out at 0.9.
